# From US20260159512A1, “BCAT2 INHIBITORS” (AGIOS PHARMACEUTICALS, INC., priority 2021, published 2026)
# How the values were obtained:
# Settings in all cases: average where tested multiple times
# BCAT2 [1] = target: T1, BCAT2 (Homo sapiens, UniProt O15382); assay: BCAT2 in vitro enzyme inhibition assay (resazurin/diaphorase-coupled fluorescence); assay type: biochemical
# T1 sequence (O15382 28-392): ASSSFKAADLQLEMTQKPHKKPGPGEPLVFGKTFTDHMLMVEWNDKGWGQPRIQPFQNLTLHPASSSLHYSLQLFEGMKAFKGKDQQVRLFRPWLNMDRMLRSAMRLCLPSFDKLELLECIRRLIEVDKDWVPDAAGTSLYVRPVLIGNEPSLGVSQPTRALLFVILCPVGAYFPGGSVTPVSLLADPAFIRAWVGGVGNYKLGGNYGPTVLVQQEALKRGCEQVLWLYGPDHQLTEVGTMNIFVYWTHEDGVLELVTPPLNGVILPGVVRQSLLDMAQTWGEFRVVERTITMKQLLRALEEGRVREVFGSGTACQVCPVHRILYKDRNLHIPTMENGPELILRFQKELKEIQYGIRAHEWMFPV
# Outline: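 Coupled fluorescence readout: glutamate formed from L-leucine/α-ketoglutarate transamination drives GDH/NAD/diaphorase reduction of resazurin (Ex 540/Em 590). Human BCAT2 was first exposed 1 h at room temperature to compound, top final 100 μM in 3-fold, 10-point series; substrate reaction ran 1 h before SDS quench, in technical duplicate with DMSO max and enzyme-free min controls.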
# hBCAT1 = target: T2, hBCAT1 (Homo sapiens, UniProt P54687); assay: BCAT1 in vitro enzyme inhibition assay (resazurin/diaphorase-coupled fluorescence); assay type: biochemical
# T2 sequence (P54687 1-386): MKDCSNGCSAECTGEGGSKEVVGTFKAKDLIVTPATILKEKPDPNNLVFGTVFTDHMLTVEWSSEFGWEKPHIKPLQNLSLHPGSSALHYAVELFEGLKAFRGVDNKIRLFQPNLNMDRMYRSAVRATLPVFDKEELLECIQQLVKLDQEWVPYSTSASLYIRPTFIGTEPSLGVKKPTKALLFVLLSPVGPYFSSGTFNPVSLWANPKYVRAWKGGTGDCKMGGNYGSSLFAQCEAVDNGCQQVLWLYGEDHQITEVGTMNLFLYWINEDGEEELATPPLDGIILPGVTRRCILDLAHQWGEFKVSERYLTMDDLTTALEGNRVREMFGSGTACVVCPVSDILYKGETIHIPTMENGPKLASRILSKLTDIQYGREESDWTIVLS
# Outline: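 Human BCAT1 activity read by resazurin/diaphorase-coupled fluorescence. Compounds added from 50× DMSO stocks at 1:50, giving 10-point 3-fold titrations from 100 μM top final concentration. Run in technical duplicate; repeat tests averaged.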
# BCAT2 [2] = target: T1, BCAT2; assay: BCAT2 in vitro cell inhibition using engineered A549 cells (KMV cell assay, 13C6-KMV by LC-MS/MS); assay type: cell-based; design: The result was an engineered A549 cell line that expressed endogenous BCAT2; endogenous in cells; host or cells: A549 cells with MUT and BCAT1 knocked out by CRISPR/CAS9; key to BCAT2 Cell Inhibition: A: less than or equal to 0.100 μM; B: greater than 0.100 and less than or equal to 0.500 μM; C: greater than 0.500 and less than or equal to 1.000 μM; d: greater than 1.000 μM; E: no fit
Structure (SMILES),IC50 (BCAT2 [1]),IC50 (hBCAT1),IC50 (BCAT2 [2]),BCAT2 Cell Inhibition (BCAT2 [2])
"O=C(N[C@H]1CCC[C@@H](n2c(-c3ccccc3O)nc3cnc(-n4nccn4)cc32)C1)c1ncc(Cl)s1 [Example 363, 5-chloro-N-((1S,3R)-3-(2-(2-hydroxyphenyl)-6-(2H-1,2,3-triazol-2-yl)-1H-imidazo[4,5-c]pyridin-1-yl)cyclohexyl)thiazole-2-carboxamide]",≤ 0.1 µM,< 0.5 µM,≤ 0.1 µM,–
"O=C(N[C@H]1CCC[C@@H](n2c(-c3ccccc3F)nc3cnc(-c4ccn[nH]4)cc32)C1)c1ncc(C(F)F)s1 [Example 77, 5-(difluoromethyl)-N-((1S,3R)-3-(2-(2-fluorophenyl)-6-(1H-pyrazol-5-yl)-1H-imidazo[4,5-c]pyridin-1-yl)cyclohexyl)thiazole-2-carboxamide]",≤ 0.1 µM,< 0.5 µM,≤ 0.1 µM,–
"O=C(N[C@H]1CCC[C@@H](n2c(-c3ccccc3F)nc3cnc(-c4nc[nH]n4)cc32)C1)c1ncc(C(F)F)s1 [Example 68, 5-(difluoromethyl)-N-[(1S,3R)-3-[2-(2-fluorophenyl)-6-(1H-1,2,4-triazol-3-yl)imidazo[4,5-c]pyridin-1-yl]cyclohexyl]thiazole-2-carboxamide]",≤ 0.1 µM,< 0.5 µM,≤ 0.1 µM,–
"O=C(N[C@H]1CCC[C@@H](n2c(-c3ccccn3)nc3cnc(-n4nccn4)cc32)C1)c1ncc(Br)s1 [Example 19, 5-bromo-N-((1S,3R)-3-(2-(pyridin-2-yl)-6-(2H-1,2,3-triazol-2-yl)-1H-imidazo[4,5-c]pyridin-1-yl)cyclohexyl)thiazole-2-carboxamide]",≤ 0.1 µM,< 0.5 µM,≤ 0.1 µM,–
"O=C(N[C@H]1CCC[C@@H](n2c(-c3ccccn3)nc3cnc(-n4cncn4)cc32)C1)c1ncc(C(F)F)s1 [Example 26, 5-(difluoromethyl)-N-((1S,3R)-3-(2-(pyridin-2-yl)-6-(1H-1,2,4-triazol-1-yl)-1H-imidazo[4,5-c]pyridin-1-yl)cyclohexyl)thiazole-2-carboxamide]",0.1 to 0.5 µM,> 5 µM,–,E
"CC(C)Cc1nc2cnc(-c3ccccn3)cc2n1[C@H]1C[C@@H](NC(=O)c2ncc(Cl)s2)CN(C)C1 [Example 262, 5-chloro-N-((3R,5S)-5-(2-isobutyl-6-(pyridin-2-yl)-1H-imidazo[4,5-c]pyridin-1-yl)-1-methylpiperidin-3-yl)thiazole-2-carboxamide]",0.1 to 0.5 µM,> 5 µM,> 1 µM,–
"CC(C)Cc1nc2cnc(-n3cc(F)cn3)cc2n1[C@@H]1CCC[C@H](NC(=O)c2ncc(Cl)s2)[C@H]1O [Example 232, 5-chloro-N-((1S,2R,3R)-3-(6-(4-fluoro-1H-pyrazol-1-yl)-2-isobutyl-1H-imidazo[4,5-c]pyridin-1-yl)-2-hydroxycyclohexyl)thiazole-2-carboxamide]",≤ 0.1 µM,< 0.5 µM,0.5 to 1 µM,–
"CC(C)Cc1nc2cnc(-c3nc[nH]n3)cc2n1[C@@H]1CCC[C@H](NC(=O)c2ncc(Cl)s2)C1 [Example 86, 5-chloro-N-((1S,3R)-3-(2-isobutyl-6-(1H-1,2,4-triazol-3-yl)-1H-imidazo[4,5-c]pyridin-1-yl)cyclohexyl)thiazole-2-carboxamide]",≤ 0.1 µM,< 0.5 µM,≤ 0.1 µM,–
"Cc1cccnc1-c1nc2cnc(-n3nccn3)cc2n1[C@@H]1CCC[C@H](NC(=O)c2ncc(C(F)F)s2)C1 [Example 60, 5-(difluoromethyl)-N-((1S,3R)-3-(2-(3-methylpyridin-2-yl)-6-(2H-1,2,3-triazol-2-yl)-1H-imidazo[4,5-c]pyridin-1-yl)cyclohexyl)thiazole-2-carboxamide]",≤ 0.1 µM,0.5 to 1 µM,0.1 to 0.5 µM,–

# The remaining lines, values ahead:
IC50 (BCAT2 [1]),IC50 (hBCAT1),IC50 (BCAT2 [2]),BCAT2 Cell Inhibition (BCAT2 [2]),Structure (SMILES)
≤ 0.1 µM,1 to 5 µM,0.1 to 0.5 µM,–,"CC(=O)N1CC(NC(=O)c2ccc(Br)s2)CC(n2c(-c3ccccn3)nc3ccc(-c4ncon4)cc32)C1 (stereo not drawn) [Example 286, N-(5-(6-(1,2,4-oxadiazol-3-yl)-2-(pyridin-2-yl)-1H-benzo[d]imidazol-1-yl)-1-acetylpiperidin-3-yl)-5-bromothiophene-2-carboxamide]"
≤ 0.1 µM,0.5 to 1 µM,≤ 0.1 µM,–,"O=C(N[C@H]1CCC[C@@H](n2c(-c3ccccn3)nc3cc(-n4ccnn4)ncc32)C1)c1ccc(Br)s1 [Example 152, 5-bromo-N-((1S,3R)-3-(2-(pyridin-2-yl)-6-(1H-1,2,3-triazol-1-yl)-3H-imidazo[4,5-c]pyridin-3-yl)cyclohexyl)thiophene-2-carboxamide]"
≤ 0.1 µM,< 0.5 µM,≤ 0.1 µM,–,"CC(=O)N1C[C@H](NC(=O)c2ncc(C(F)F)s2)C[C@H](n2c(-c3ccccc3F)nc3cnc(-c4ncco4)cc32)C1 [Example 128, N-((3R,5S)-1-acetyl-5-(2-(2-fluorophenyl)-6-(oxazol-2-yl)-1H-imidazo[4,5-c]pyridin-1-yl)piperidin-3-yl)-5-(difluoromethyl)thiazole-2-carboxamide]"
≤ 0.1 µM,1 to 5 µM,0.1 to 0.5 µM,–,"O=C(NC1CNCC(n2c(-c3ncccc3F)nc3cnc(-n4nccn4)cc32)C1)c1ncc(C(F)F)s1 (stereo not drawn) [Example 125, 5-(difluoromethyl)-N-(5-(2-(3-fluoropyridin-2-yl)-6-(2H-1,2,3-triazol-2-yl)-1H-imidazo[4,5-c]pyridin-1-yl)piperidin-3-yl)thiazole-2-carboxamide]"
≤ 0.1 µM,< 0.5 µM,≤ 0.1 µM,–,"O=C(N[C@H]1CCC[C@@H](n2c(-c3ccccc3F)nc3cnc(-c4ccc(F)cn4)cc32)C1)c1ncc(Cl)s1 [Example 170, 5-chloro-N-((1S,3R)-3-(2-(2-fluorophenyl)-6-(5-fluoropyridin-2-yl)-1H-imidazo[4,5-c]pyridin-1-yl)cyclohexyl)thiazole-2-carboxamide]"
≤ 0.1 µM,< 0.5 µM,≤ 0.1 µM,–,"CC(C)Cc1nc2cnc(-c3nc[nH]n3)cc2n1[C@@H]1CCCC[C@H](NC(=O)c2ncc(Cl)s2)C1 [Example 374, 5-chloro-N-((1S,3R)-3-(2-isobutyl-6-(1H-1,2,4-triazol-3-yl)-1H-imidazo[4,5-c]pyridin-1-yl)cycloheptyl)thiazole-2-carboxamide]"
≤ 0.1 µM,< 0.5 µM,≤ 0.1 µM,–,"Cc1cnc(-c2cc3c(cn2)nc(-c2ccccn2)n3[C@@H]2CCC[C@H](NC(=O)c3ccc(Br)s3)C2)o1 [Example 18, 5-bromo-N-((1S,3R)-3-(6-(5-methyloxazol-2-yl)-2-(pyridin-2-yl)-1H-imidazo[4,5-c]pyridin-1-yl)cyclohexyl)thiophene-2-carboxamide]"
≤ 0.1 µM,< 0.5 µM,≤ 0.1 µM,–,"Cc1coc(-c2cc3c(cn2)nc(-c2ccccn2)n3[C@@H]2CCC[C@H](NC(=O)c3ccc(Br)s3)C2)n1 [Example 31, 5-bromo-N-((1S,3R)-3-(6-(4-methyloxazol-2-yl)-2-(pyridin-2-yl)-1H-imidazo[4,5-c]pyridin-1-yl)cyclohexyl)thiophene-2-carboxamide]"
≤ 0.1 µM,1 to 5 µM,≤ 0.1 µM,–,"CO[C@@H]1C[C@@H](NC(=O)c2ncc(Cl)s2)C[C@@H](n2c(-c3ccccc3F)nc3cnc(-n4cncn4)cc32)C1 (stereo in doubt) [Example 416, 5-chloro-N-((1S,3R,5R)-3-(2-(2-fluorophenyl)-6-(1H-1,2,4-triazol-1-yl)-1H-imidazo[4,5-c]pyridin-1-yl)-5-methoxycyclohexyl)thiazole-2-carboxamide]"
